Data from PMC7557402, “Evaluation of Nucleoside Analogs as Antimicrobials Targeting Unique Enzymes in Borrelia burgdorferi” (Pathogens, 2020).

Key:
Pfs [1] = target: T1, Pfs (Borreliella burgdorferi, UniProt O50162); assay: MTAN spectrophotometric activity assay (specific activity, Km); format: biochemical, Borrelia burgdorferi
Description: Recombinant MTANs were expressed and purified as previously described. Briefly, overnight 10 mL cultures of recombinant E. coli BL21(DE3) pLysS cells containing engineered pET30a expression plasmids for Bgp, MtnN or Pfs were grown at 37 °C with shaking (150 rpm) in LB broth supplemented with 50 µg/mL kanamycin and 0.5% glucose. The culture was diluted 1:50 in fresh medium and incubated at 37 °C with shaking (150 rpm) until the absorbance (600 nm) reached 0.4–0.6. Protein expression was induced with the addition of isopropyl β-D-1-thiogalactopyranoside (IPTG) to a final concentration of 1 mM and continued overnight incubation with shaking at 30 °C. Cells were harvested by centrifugation (10,000× g/15 min), and the pellet was washed once with ice-cold lysis buffer (50 mM sodium phosphate, pH = 8.0, 300 mM NaCl, 10 mM imidazole, 2mM β mercaptoethanol). Harvested cell pellets were resuspended in 10 mL fresh lysis buffer and lysed by sonication on ice using a Misonix Sonicator 300 (power setting 7, pulse 30 s, 1 min cooling with total sonication for 2.5 min). The cell lysates were centrifuged at 10,000× g for 15 min at 4 °C to remove debris, and the lysate was further filtered through a […] syringe filter to obtain a clear extract. Recombinant N-terminal hexahistidine tagged proteins were purified from the lysate using HisPur™ affinity columns (Thermo Scientific) according to the manufacturer’s specifications, and specifically eluted with 250 mM imidazole containing buffer (pH = 7). Eluted materials were analyzed by SDS-PAGE and Coomassie blue staining and found to be >95% homogeneous. Enzyme concentrations were determined using UV scans on a Cary100 spectrophotometer (Agilent) to determine the absorbance at 280 nm and applying extinction coefficients (0.1%) of 0.594 (Bgp), 0.637 (MtnN), and 0.404 (Pfs). Enzyme stocks (1 mg/mL) were prepared in 20% glycerol and stored at −80 °C.
(§1) Enzyme specific activities were determined using previously reported optimal pH conditions (50 mM sodium phosphate, pH = 7, for Bgp, MtnN; 50 mM sodium phosphate-citrate, pH = 5, for Pfs) and a spectrophotometric activity assay that measures the decrease in UV absorbance at 275 nm that occurs when MTA is cleaved to 5-methylthioribose and adenine (ε275 = 1.6 mM^−1cm^−1). The extinction coefficients for cleavage of other nucleosides were experimentally validated and found to be the same for MSeA, FSBA, and IADO (ε275 = 1.6 mM^−1cm^−1). Due to the added UV absorbance imparted by the 5′ purine group found in PurTA, the enzyme reactions were followed spectrophotometrically at 260 nm using the experimentally determined extinction coefficient of ε260 = 5.6 mM^−1cm^−1. Enzyme specific activities for MTA were generally 1–2 U/mg (1 U = µmol MTA hydrolyzed/min). The enzyme specific activities for other nucleosides were determined and reported in U/mg and as the % max specific activity (relative to MTA at 100%).
(§2) Kinetic constants have been previously reported for MTA [18]. As MSeA was also an efficient substrate for the B. burgdorferi nucleosidases, kinetic constants were determined using the activity assay described above, varying the nucleoside concentrations from 1 to 20 µM, and fitting the data on substrate-velocity plots to the Michaelis–Menten equation using GraphPad Prism (version 6):(1) Vo=Vmax[S]/Km+[S]

Bgp = Bgp (Borreliella burgdorferi, UniProt Q9F952); assay: MTAN inhibition constants (competitive inhibition of MTA hydrolysis); format: biochemical, Borrelia burgdorferi; settings: MTA 100 µM, inhibitor 0 to 100 µM, read-out: Ki (inhibition constant)
Description: (§3) The inhibited velocity (Vo’) and uninhibited velocity (Vo) values were determined, and the ratio of Vo’/Vo plotted as a function of inhibitor concentration. Ki values were calculated from these plots by fitting the data to the equation for competitive inhibition using GraphPad Prism:(2) Vo^′/Vo=Km+[S]/Km+[S]+(Km[I]/Ki)

MtnN = MtnN (Borreliella burgdorferi, UniProt O50860); assay: as above; format: biochemical, Borrelia burgdorferi; settings: MTA 100 µM, inhibitor 0 to 100 µM, read-out: Ki (inhibition constant)
Description: as §3, with “For the other compounds, inhibition constants (Ki’s) were determined as previously described, using an MTA concentration of 100 µM and varying the inhibitor concentration from 0 to 100 µM. The” for “The”
(§4) The enzyme inhibition constant and delayed onset inhibition constant for dET-ImmA was previously reported.

Pfs [2] = target: T1, Pfs; assay: as above; format: biochemical, Borrelia burgdorferi; settings: MTA 100 µM, inhibitor 0 to 100 µM, read-out: Ki (inhibition constant)
Description: as §3, with “For the other compounds, inhibition constants (Ki’s) were determined as previously described, using an MTA concentration of 100 µM and varying the inhibitor concentration from 0 to 100 µM. The” for “The”
as §4

[3] = test system: Borrelia MTANs (Bgp, MtnN, Pfs); assay: MTAN activity/kinetics, across the nucleosidases; format: biochemical; settings: range over the B. burgdorferi nucleosidases
Description: as §1, §2
as §3, with “For the other compounds, inhibition constants (Ki’s) were determined as previously described, using an MTA concentration of 100 µM and varying the inhibitor concentration from 0 to 100 µM. The” for “The”

B. burgdorferi N40 = assay: Subculture without inhibitor after 7 days of treatment: bacteriostatic versus bactericidal; format: cell-based, Borrelia burgdorferi
Description: After 7 days of treatment, a 5 µL aliquot from each treatment tube (and untreated control) was added to 1 mL of BSKII-RS medium to allow any remaining viable spirochetes in the sample to grow. After incubation for 7–21 days at 33 °C, the survival of the spirochetes was determined using dark-field microscopy to observe motility and by employing bioluminescence measurements to assess vitality of the recovered culture.
To further differentiate between bacteriostatic versus bactericidal activities of MTAN inhibitors, we subcultured drug treated spirochetes in the absence of inhibitors to recover any live B. burgdorferi remaining after seven days of inhibitor treatment (summarized in Table 4). If non-motile spirochetes from treated cultures were able to grow back, the inhibitor was determined to have a bacteriostatic effect at the selected concentration. […] Spirochete survival was determined by both dark-field microscopy and bioluminescence measurements. Microscopic examination allowed assessment of motility of the spirochetes whereas bioluminescence assays assessed recovery and viability of B. burgdorferi cells. […] By comparison, a reduction in bioluminescence compared to the untreated control was observed after treatment with dEt-ImmA at a 0.4 µM or greater concentration. […] After seven days of treatment, live spirochetes were only recovered when concentrations of ≤0.4 µM were used for dEt-ImmA and IADO.

T1 sequence (O50162 entry or part of it): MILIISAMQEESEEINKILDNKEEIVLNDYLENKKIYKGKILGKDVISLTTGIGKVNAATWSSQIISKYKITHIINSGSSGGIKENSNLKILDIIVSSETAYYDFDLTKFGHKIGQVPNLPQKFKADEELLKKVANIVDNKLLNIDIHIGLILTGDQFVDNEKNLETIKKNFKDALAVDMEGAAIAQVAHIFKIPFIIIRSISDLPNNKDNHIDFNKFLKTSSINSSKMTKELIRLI
Sequence of Bgp (Q9F952 entry or part of it): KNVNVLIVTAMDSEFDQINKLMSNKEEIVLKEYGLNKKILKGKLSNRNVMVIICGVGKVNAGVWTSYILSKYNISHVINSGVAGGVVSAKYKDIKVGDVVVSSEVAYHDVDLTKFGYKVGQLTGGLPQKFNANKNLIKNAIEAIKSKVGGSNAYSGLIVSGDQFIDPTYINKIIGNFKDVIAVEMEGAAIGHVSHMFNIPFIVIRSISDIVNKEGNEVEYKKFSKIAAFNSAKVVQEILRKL
Sequence of MtnN (O50860 entry or part of it): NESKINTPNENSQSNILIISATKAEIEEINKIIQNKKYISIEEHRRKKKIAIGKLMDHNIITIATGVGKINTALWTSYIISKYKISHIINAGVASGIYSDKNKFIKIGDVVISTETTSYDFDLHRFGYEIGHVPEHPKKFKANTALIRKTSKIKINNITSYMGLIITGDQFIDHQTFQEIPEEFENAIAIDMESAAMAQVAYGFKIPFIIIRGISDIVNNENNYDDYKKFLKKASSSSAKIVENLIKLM

## Nc1ncnc2c1ncn2[C@@H]1O[C@H](CI)[C@@H](O)[C@H]1O [IADO, 5′-deoxy-5′-iodoadenosine]
Pfs [1]; pH 5, 1 U = 1 µmol MTA hydrolyzed per minute
  Specific Activity: 0.11 U/mg
Pfs [1]; relative to MTA as a substrate
  % Max Specific Activity: 6%
Bgp
  Ki: 0.63 µM
MtnN
  Ki: 2.47 µM
Pfs [2]
  Ki: 0.9 µM
[3]
  activity relative to that found for MTA: 3–6%
B. burgdorferi N40; 2 µM and 10 µM, 21 days of subculture in media lacking MTAN inhibitors
  recovery of live spirochetes: no live spirochetes were recovered
B. burgdorferi N40; Dose: 2 µM, 10 µM, 7 days of treatment, then subculture
  Inhibitor Activity: Bactericidal
B. burgdorferi N40; after seven days of treatment
  concentrations at which live spirochetes were recovered: ≤ 0.4 µM
B. burgdorferi N40; after seven days of treatment, bacteriostatic at lower concentrations
  concentrations that exert bactericidal activity: ≥ 1 µM
